Measurements as given in patent US8778952B2, “Method of reducing intraosseous hypertension” (priority 2007, dated 2014).

System: patient with severe arthritis in their knee
Experiment: Case observation: MRI and reported pain of a patient's arthritic knee before and after routine use of a phosphodiesterase inhibitor
Type: in vivo, human
Details: one patient, 50 mg of sildenafil, once per day
Text: A physician, who is also the inventor of the present invention, performed an arthroscopic surgical procedure on a patient suffering from a loose cartilage body in the setting of severe arthritis in their knee. The patient was a competitive senior tennis player and declined knee replacement for that reason. The purpose of the procedure was merely to remove a loose body and abate the mechanical symptoms it caused. Approximately one year later, the patient returned to their physician for evaluation of what was believed to be an unrelated ganglion cyst on the same knee. […] Upon questioning by their physician, the patient explained that the only difference in their medical history (including lifestyle, activity, new illness and medications) between the time of the first and second MRIs was that they started using a phosphodiesterase inhibitor. Specifically, the patient started using Viagra® (50 mg of sildenafil, once per day). There were no other changes in the interval medical history.

CCCc1nn(C)c2c(=O)[nH]c(-c3cc(S(=O)(=O)N4CCN(C)CC4)ccc3OCC)nc12 [Viagra®, sildenafil]
intraosseous hypertension / bone edema on coronal MRI of knee (white spots on tibial spines) (FIG. 2 MRI compared with FIG. 1 MRI approximately one year earlier): dissipation of the intraosseous hypertension | knee pain from arthritis (reported by patient) (few months prior to second MRI, approximately one year after first MRI): reduction in knee pain
